These results are taken from patent publication US20070032410A1, “COMPOSITIONS AND METHODS FOR THE TREATMENT OF PSYCHIATRIC DISORDERS” (Atossa Healthcare, Inc., priority 2000, published 2007).

This data set has as its system tracheal/bronchial epithelial cell membrane inserts (EpiAirway). Kind of data set: Permeation of carbetocin formulations across tracheal/bronchial epithelial cell membrane inserts (EIA of basolateral media). The following applies: human, 1 h. The data set is classed as in vitro ADME. The protocol: Permeation studies on varying formulations of carbetocin were completed using tracheal/bronchial epithelial cell membrane inserts. Samples were evaluated for appearance, color, clarity, pH, osmolality, cell viability using an MTT assay, cytotoxicity using an LDH assay, and transepithelial resistance and permeation.
Tracheal/bronchial epithelial cell membrane inserts (EpiAirway, MatTek Corp., Ashland, Mass.) were received the day before the experiment. Each tissue insert was placed in a well of a 6 well plate which contained 0.9 ml of serum free media and cultured at 37° C. for 24 hours to allow the tissues to equilibrate. The day of the experiment, transepithelial electrical resistance measurements were taken for each insert using a Tissue Resistance Measurement Chamber connected to an Epithelial Voltohmeter (World Precision Instruments, Inc., Sarasota, Fla.).
After the background transepithelial electrical resistance was determined, 1 ml of media was placed in the bottom of each well in a six well plate. The inserts were inverted and drained and placed into new wells with fresh media. For samples 1-12, 100 μl of the formulation to be tested was then added to an insert. For samples 13-92, 25 μl of the formulation was added to each insert. The inserts were placed in a shaking incubator at 100 rpm and 37° C. for one hour. The tissue inserts were then removed from the incubator. […]

*1 amine or outer side, *2 acyl side, *3 side chain or, on linkers, in order; H or OH if unused. Where a SMILES comes first, the peptide text is derived from it. Bridges are numbered along the chain shown (N, C = ends). X1 = O=C(CCC[*:2])[*:1]

With `CC[C@H](C)[C@@H]1NC(=O)[C@H](Cc2ccc(OC)cc2)NC(=O)CCCSC[C@@H](C(=O)N2CCC[C@H]2C(=O)N[C@@H](CC(C)C)C(=O)NCC(N)=O)NC(=O)[C@H](CC(N)=O)NC(=O)[C@H](CCC(N)=O)NC1=O` [carbetocin, 1-butanoic acid-2-(O-methyl-L-tyrosine)-1-carbaoxytocin] (Y(Me)IQNCPLG-NH2; linker N-5 via X1), the permeation entry is on record as “less than 1.0%”.
